Measurements as given in patent US12653822B2, “Aripiprazole formulations having increased injection speeds” (ALKERMES PHARMA IRELAND LIMITED, priority 2014, dated 2026).

Legend:
[1] = Phase 3 extension study: rapid IM injection of Compound 1, pain and injection site reactions; assay type: in vivo, human; details: fast injection
Experimental: Injection site reactions and pain upon IM injection of Compound 1 are a potential safety concern. A Phase 3, multicenter, extension study was conducted in 81 sites to assess the effect of rapid IM injections of Compound 1 on human patients diagnosed with stable schizophrenia. Briefly, 332 subjects enrolled in the study were assigned PFS. Compound 1 is formulated as a pre-filled syringe (PFS) of an extended release aqueous suspension of a therapeutically effective amount of Compound 1. An injection volume of 3.4 mL or 1.6 mL of the aqueous suspension was administered according to protocol I at a rate of less than 10 seconds by inserting the 20 gauge needle in the gluteal muscle. ISRs upon IM injection of Compound 1 were assessed at each visit. Over 5000 injections of Compound 1 have been administered intramuscularly with an ISR rate of less than 1%.
• 1. TAP the pre-filled syringe at least 10 times to dislodge any material that may have settled. • 2. […] Replace with new needle (Steps 3 & 4) and administer into an adjacent site in the same gluteal muscle (Steps 5 & 6).] • If you are unable to complete the injection, replace with new needle (Steps 3 & 4) and readminister into an adjacent site in the same gluteal muscle (Steps 5 & 6). • 7. […]

[2] = cited from earlier work

Compound: CCCCCCCCCCCC(=O)OCN1C(=O)CCc2ccc(OCCCCN3CCN(c4cccc(Cl)c4Cl)CC3)cc21 [Compound 1, (7-(4-(4-(2,3-dichlorophenyl)piperazin-1-yl)butoxy)-2-oxo-3,4-dihydroquinolin-1(2H)-yl)methyl dodecanoate]
- injection site reactions and/or elevated pain levels reported, % of patients [1]: < 1%

Compound: O=C1CCc2ccc(OCCCCN3CCN(c4cccc(Cl)c4Cl)CC3)cc2N1 [aripiprazole free base, 7-{4-[4-(2,3-dichlorophenyl)-1-piperazinyl]butoxy}-3,4-dihydro-2(1H)-quinolinone]
- Tissue irritation ([2]; following intramuscular (IM) injection and subcutaneous (SC) injection): moderate to severe
- Pharmacokinetic profile ([2]; injections): prolonged
